Twelve molecules from patent US11180474B2 (BRISTOL-MYERS SQUIBB COMPANY, priority 2016, dated 2021) can be followed below.

In general, IC50 refers to the midpoint of a concentration-inhibition curve. A high value points to weaker potency in that assay.

For one assay, the target named is T1, human TLR7 (Homo sapiens, UniProt Q9NYK1).
T1 construct: host or cells: HEK-Blue cells
T1 sequence (Q9NYK1 27-1049): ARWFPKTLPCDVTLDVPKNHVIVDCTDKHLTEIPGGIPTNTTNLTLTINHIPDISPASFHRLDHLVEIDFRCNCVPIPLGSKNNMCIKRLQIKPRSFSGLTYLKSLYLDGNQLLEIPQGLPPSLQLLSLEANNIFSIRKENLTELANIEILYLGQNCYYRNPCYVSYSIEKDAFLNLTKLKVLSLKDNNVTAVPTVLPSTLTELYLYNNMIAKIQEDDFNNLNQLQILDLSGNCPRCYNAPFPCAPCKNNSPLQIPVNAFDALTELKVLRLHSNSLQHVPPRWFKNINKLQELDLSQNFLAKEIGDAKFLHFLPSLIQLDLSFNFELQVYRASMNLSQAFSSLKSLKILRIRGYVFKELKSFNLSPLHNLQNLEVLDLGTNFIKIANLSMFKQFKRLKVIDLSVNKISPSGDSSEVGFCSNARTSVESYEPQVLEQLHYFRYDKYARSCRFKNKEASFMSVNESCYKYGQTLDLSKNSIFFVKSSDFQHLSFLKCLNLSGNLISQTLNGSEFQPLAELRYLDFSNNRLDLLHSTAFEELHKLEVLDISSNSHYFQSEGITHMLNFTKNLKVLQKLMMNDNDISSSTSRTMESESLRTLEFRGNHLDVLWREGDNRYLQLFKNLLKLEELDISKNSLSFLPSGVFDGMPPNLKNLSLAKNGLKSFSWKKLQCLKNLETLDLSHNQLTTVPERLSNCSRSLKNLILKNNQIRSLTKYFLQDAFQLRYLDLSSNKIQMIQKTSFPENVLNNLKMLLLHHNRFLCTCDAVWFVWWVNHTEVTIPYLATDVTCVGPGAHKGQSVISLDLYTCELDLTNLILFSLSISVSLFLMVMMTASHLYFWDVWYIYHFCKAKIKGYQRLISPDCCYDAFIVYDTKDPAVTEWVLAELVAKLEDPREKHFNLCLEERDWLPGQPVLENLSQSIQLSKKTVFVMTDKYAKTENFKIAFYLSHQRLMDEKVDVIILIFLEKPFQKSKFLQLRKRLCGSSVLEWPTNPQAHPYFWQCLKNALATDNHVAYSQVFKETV
Nature of the assay: TLR7 inhibition reporter assay (HEK-Blue cells, SEAP reporter, gardiquimod stimulation). It counts as cell-based. The settings on record: HEK-Blue cells overexpressing human TLR7, gardiquimod 7.5 μM. In short, it runs like this: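 SEAP readout via HEK-Blue Detection medium after 22 h at 37 °C, 5% CO2 defines inhibition, normalized between agonist-plus-DMSO wells and a reference inhibitor. Compound dose range 0.05 nM–50 μM; TLR7 cells at 15,000/well (gardiquimod), TLR8 at 20,000/well (R848).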
(In general: In a reporter assay the amount or activity of a reporter protein is the signal.)

Another assay concerns the target T2, human TLR9 (Homo sapiens, UniProt Q9NR96).
T2 construct: host or cells: HEK-Blue cells
T2 sequence (Q9NR96 26-1032): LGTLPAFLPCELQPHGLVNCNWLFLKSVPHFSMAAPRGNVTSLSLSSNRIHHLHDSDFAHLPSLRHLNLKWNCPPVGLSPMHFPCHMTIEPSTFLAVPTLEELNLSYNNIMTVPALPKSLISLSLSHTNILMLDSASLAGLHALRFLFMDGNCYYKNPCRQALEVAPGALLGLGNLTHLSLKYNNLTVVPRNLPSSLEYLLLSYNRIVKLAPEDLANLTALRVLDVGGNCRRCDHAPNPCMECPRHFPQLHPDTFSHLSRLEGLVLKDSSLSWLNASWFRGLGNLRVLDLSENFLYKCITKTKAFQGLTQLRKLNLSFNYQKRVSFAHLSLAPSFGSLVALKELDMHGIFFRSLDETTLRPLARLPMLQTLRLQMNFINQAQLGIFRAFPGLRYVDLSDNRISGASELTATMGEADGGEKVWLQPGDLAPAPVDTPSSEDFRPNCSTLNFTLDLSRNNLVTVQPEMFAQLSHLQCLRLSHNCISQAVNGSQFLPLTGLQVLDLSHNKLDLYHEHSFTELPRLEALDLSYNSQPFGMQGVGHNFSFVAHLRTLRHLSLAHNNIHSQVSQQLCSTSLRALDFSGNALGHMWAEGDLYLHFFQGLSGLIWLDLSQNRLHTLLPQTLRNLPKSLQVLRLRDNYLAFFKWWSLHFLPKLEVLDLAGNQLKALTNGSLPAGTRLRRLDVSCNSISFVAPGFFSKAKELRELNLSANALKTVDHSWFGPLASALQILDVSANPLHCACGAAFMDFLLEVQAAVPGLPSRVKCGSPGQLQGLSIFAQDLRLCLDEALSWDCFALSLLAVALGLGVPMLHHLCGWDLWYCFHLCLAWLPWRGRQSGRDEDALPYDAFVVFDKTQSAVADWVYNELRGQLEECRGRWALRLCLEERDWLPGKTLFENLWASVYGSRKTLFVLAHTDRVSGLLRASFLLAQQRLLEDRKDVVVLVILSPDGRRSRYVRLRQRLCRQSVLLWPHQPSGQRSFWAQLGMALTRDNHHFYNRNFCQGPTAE
The assay can be described thus: TLR9 inhibition reporter assay (HEK-Blue cells, SEAP reporter, ODN2006 stimulation). It counts as cell-based. To be noted: HEK-Blue cells overexpressing human TLR9, ODN2006 5 nM. In short, it runs like this:
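HEK-Blue cells overexpressing human TLR7, TLR8 or TLR9 carry a SEAP reporter driven by NF-κB/AP-1 sites. Compounds (0.05 nM–50 μM) were preincubated 30 min at room temperature, then cells were stimulated with gardiquimod 7.5 μM (TLR7), R848 15.9 μM (TLR8) or ODN2006 5 nM (TLR9) for 22 h at 37 °C.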

Bounds are passed on as bounds.

Consider `COc1ccc(-c2[nH]c3ccc(C4CCN(CCN(C)CC(C)C)CC4)cc3c2C)cc1OC` [Example 110, N-(2-(4-(2-(3,4-dimethoxyphenyl)-3-methyl-1H-indol-5-yl)piperidin-1-yl)ethyl)-N,2-dimethylpropan-1-amine], for which the figures for the IC50 at human TLR7 and against human TLR9 were 1120 nM and 288 nM, respectively.

As for `COc1ccc(-c2[nH]c3ccc(C4CCN(C5CC(C)(C)N(C)C(C)(C)C5)CC4)cc3c2C)cc1OC` [Example 22, 2-(3,4-dimethoxyphenyl)-3-methyl-5-(1′,2′,2′,6′,6′-pentamethyl-[1,4′-bipiperidin]-4-yl)-1H-indole], the figures for the half-inhibitory concentration (IC50) against human TLR7 and on human TLR9 were 1160 nM and 1110 nM, respectively.

For the molecule `COc1ccc(-c2[nH]c3ccc(C4CCN(Cc5nccs5)CC4)cc3c2C(C)C)cc1OC` [Example 261, 2-((4-(2-(3,4-dimethoxyphenyl)-3-isopropyl-1H-indol-5-yl)piperidin-1-yl)methyl)thiazole], the IC50 amounted to 180 nM against human TLR7 and 5760 nM at human TLR9.

`COc1ccc(-c2[nH]c3ccc(C4CCN(CCN(C)C)CC4)cc3c2C)cc1OC` [Example 415, 2-(4-(2-(3,4-dimethoxyphenyl)-3-methyl-1H-indol-5-yl)piperidin-1-yl)-N,N-dimethylethan-1-amine]: the half-inhibitory concentration (IC50) against human TLR7 turned out to be 2130 nM; on human TLR9, 1070 nM.

Turning to `CCc1c(-c2ccc(OC)c(OC)c2)[nH]c2ccc(C3CCN(C(=O)CN(C)C(C)C)CC3)cc12` [Example 170, 1-(4-(2-(3,4-dimethoxyphenyl)-3-ethyl-1H-indol-5-yl)piperidin-1-yl)-2-(isopropyl(methyl)amino) ethan-1-one], the IC50 against human TLR7 came out at 257 nM; against human TLR9 it was 1670 nM.

As for `CCc1c(-c2ccc(OC)c(OC)c2)[nH]c2ccc(C3CCN(C(=O)CN4CCC(N5CCCCC5)CC4)CC3)cc12` [Example 158, 2-([1,4′-bipiperidin]-1′-yl)-1-(4-(2-(3,4-dimethoxyphenyl)-3-ethyl-1H-indol-5-yl)piperidin-1-yl)ethan-1-one], the IC50 was 219 nM on human TLR7 and 678 nM at human TLR9.

Consider `COc1ccc(-c2[nH]c3ccc(C4CCN(CC5CCCCN5)CC4)cc3c2C)cc1OC` (stereo not drawn) [Example 101, 2-(3,4-dimethoxyphenyl)-3-methyl-5-(1-(piperidin-2-ylmethyl)piperidin-4-yl)-1H-indole], for which the 50% inhibitory concentration (IC50) at human TLR7 came out at 1790 nM; at human TLR9, 209 nM.

In the case of `COc1ccc(-c2[nH]c3ccc(C4CCN(Cc5ccc6ccccc6n5)CC4)cc3c2C)cc1OC` [Example 35, 2-((4-(2-(3,4-dimethoxyphenyl)-3-methyl-1H-indol-5-yl)piperidin-1-yl)methyl)quinoline], the figures for the IC50 on human TLR7 and against human TLR9 were 2680 nM and 1430 nM, respectively.

For the molecule `CCc1c(-c2ccc(OC)c(OC)c2)[nH]c2ccc(C3CCN(C(=O)CNCC(C)O)CC3)cc12` (stereo not drawn) [Example 157, 1-(4-(2-(3,4-dimethoxyphenyl)-3-ethyl-1H-indol-5-yl)piperidin-1-yl)-2-((2-hydroxypropyl)amino)ethan-1-one], the half-inhibitory concentration (IC50) was 71 nM against human TLR7 and 2840 nM against human TLR9.

As for `COc1ccc(-c2[nH]c3ccc(C4CCN(C5CCN(C(C)=O)CC5)CC4)cc3c2C)cc1OC` [Example 12, 1-(4-(2-(3,4-dimethoxyphenyl)-3-methyl-1H-indol-5-yl)-[1,4′-bipiperidin]-1′-yl)ethan-1-one], the IC50 against human TLR7 came out at 1340 nM; on human TLR9, 649 nM.

As for `COc1ccc(-c2[nH]c3ccc(C4CCN(C5CCN(CC(C)C)C5)CC4)cc3c2C)cc1OC` (stereo not drawn) [Example 85, 2-(3,4-dimethoxyphenyl)-5-(1-(1-isobutylpyrrolidin-3-yl)piperidin-4-yl)-3-methyl-1H-indole], the values for the half-inhibitory concentration (IC50) on human TLR7 and against human TLR9 were 907 nM and 247 nM, respectively.

In the case of `COc1ccc(-c2[nH]c3ccc(C4CCN(C5CCN(c6ccccc6)C5)CC4)cc3c2C)cc1OC` (stereo not drawn) [Example 8, 2-(3,4-dimethoxyphenyl)-3-methyl-5-(1-(1-phenylpyrrolidin-3-yl)piperidin-4-yl)-1H-indole], the half-inhibitory concentration (IC50) at human TLR7 and against human TLR9 was ≥ 50000 nM each time.
